Measurements taken from ChEMBL document CHEMBL5512632, “Unlocking the potential of 1,4-naphthoquinones: A comprehensive review of their anticancer properties” (Eur J Med Chem, 2024).

How the values were obtained:
A549 = assay: Antiproliferative activity against human A549 cells assessed as inhibition of cell growth incubated for 48 hrs by MTT assay; format: functional, cell-based; conditions: A549, 48 h
[1] = Antiproliferative activity against human YCC-16 cells assessed as inhibition of cell growth incubated for 24 hrs by MTT reagent based microplate reader assay; format: functional; conditions: YCC-16, 24 h
MKN-45 = assay: Antiproliferative activity against human MKN-45 cells assessed as inhibition of cell growth incubated for 24 hrs by MTT reagent based microplate reader assay; format: functional; conditions: MKN-45, 24 h
[2] = Antiproliferative activity against human YCC-6 cells assessed as inhibition of cell growth incubated for 24 hrs by MTT reagent based microplate reader assay; format: functional; conditions: YCC-6, 24 h
MKN-28 = assay: Antiproliferative activity against human MKN-28 cells assessed as inhibition of cell growth incubated for 24 hrs by MTT reagent based microplate reader assay; format: functional; conditions: MKN-28, 24 h
NCI-N87 = assay: Antiproliferative activity against human NCI-N87 cells assessed as inhibition of cell growth incubated for 24 hrs by MTT reagent based microplate reader assay; format: functional; conditions: NCI-N87, 24 h
[3] = Antiproliferative activity against human SNU-216 cells assessed as inhibition of cell growth incubated for 24 hrs by MTT reagent based microplate reader assay; format: functional; conditions: SNU-216, 24 h
AGS [4] = assay: Antiproliferative activity against human AGS cells assessed as inhibition of cell growth incubated for 24 hrs by MTT reagent based microplate reader assay; format: functional
[5] = Antiproliferative activity against human SNU-484 cells assessed as inhibition of cell growth incubated for 24 hrs by MTT reagent based microplate reader assay; format: functional; conditions: SNU-484, 24 h
[6] = Antiproliferative activity against human YCC-1 cells assessed as inhibition of cell growth incubated for 24 hrs by MTT reagent based microplate reader assay; format: functional; conditions: YCC-1, 24 h
PC-3 = assay: Antiproliferative activity against human PC-3 cells assessed as inhibition of cell growth incubated for 72 hrs by MTT assay; format: functional, cell-based; conditions: PC-3, 72 h
LNCaP = assay: Antiproliferative activity against human LNCaP cells assessed as inhibition of cell growth incubated for 72 hrs by MTT assay; format: functional, cell-based
DBTRG-05MG = assay: Antiproliferative activity against human DBTRG-05MG cells assessed as inhibition of cell growth incubated for 72 hrs by cell counting kit method; format: functional, cell-based; conditions: dbtrg-05mg
HCT-116 [7] = assay: Cytotoxicity against human HCT-116 cells incubated for 48 hrs by MTT assay; format: functional, cell-based; conditions: HCT-116, 48 h
HCT-15 [8] = assay: Cytotoxicity against human HCT-15 cells incubated for 48 hrs by MTT assay; format: functional, cell-based; conditions: HCT-15, 48 h
HeLa [9] = assay: Antiproliferative activity against human HeLa cells assessed as inhibition of cell growth incubated for 48 hrs by MTT reagent based colorimetric assay; format: functional
HepG2 [10] = assay: Antiproliferative activity against human HepG2 cells assessed as inhibition of cell growth incubated for 48 hrs by MTT reagent based colorimetric assay; format: functional; conditions: HepG2, 48 h
HepG2 [11] = assay: Antiproliferative activity against human HepG2 cells assessed as inhibition of cell growth incubated for 48 hrs by MTT assay; format: functional, cell-based; conditions: HepG2, 48 h
SGC-7901 = assay: Antiproliferative activity against human SGC-7901 cells assessed as inhibition of cell growth incubated for 48 hrs by MTT assay; format: functional, cell-based; conditions: SGC-7901, 48 h
HeLa [12] = assay: Cytotoxicity against human HeLa cells assessed as inhibition of cell growth incubated for 48 hrs by MTT assay; format: functional, cell-based
MCF7 [13] = assay: Antiproliferative activity against human MCF7 cells assessed as inhibition of cell growth incubated for 24 hrs by MTT assay; format: functional, cell-based; conditions: MCF7, 24 h
HCT-15 [14] = assay: Antiproliferative activity against human HCT-15 cells assessed as inhibition of cell growth incubated for 24 hrs by MTT assay; format: functional, cell-based; conditions: HCT-15, 24 h
AGS [15] = assay: Antiproliferative activity against human AGS cells assessed as inhibition of cell growth incubated for 3 days by MTT assay; format: functional, cell-based; conditions: 72 h
MCF7 [16] = assay: Cytotoxicity against human MCF7 cells assessed as reduction in cell growth incubated for 48 hrs by MTT assay; format: functional, cell-based; conditions: MCF7, 48 h
T-24 = assay: Cytotoxicity against human T24 cells assessed as reduction in cell growth incubated for 48 hrs by MTT assay; format: functional, cell-based; conditions: T-24, 48 h
DU-145 [17] = assay: Cytotoxicity against human DU-145 cells assessed as reduction in cell growth incubated for 48 hrs by MTT assay; format: functional, cell-based; conditions: DU-145, 48 h
HT-29 = assay: Antiproliferative activity against human HT-29 cells assessed as inhibition of cell growth incubated for 48 hrs by MTT assay; format: functional, cell-based; conditions: HT-29, 48 h
MDA-MB-435 = assay: Antiproliferative activity against human MDA-MB-435 cells assessed as inhibition of cell growth incubated for 72 hrs by MTT assay; format: functional, cell-based; conditions: MDA-MB-435, 72 h
DU-145 [18] = assay: Antiproliferative activity against human DU-145 cells assessed as inhibition of cell growth incubated for 72 hrs by MTT assay; format: functional, cell-based; conditions: DU-145, 72 h
HCT-116 [19] = assay: Antiproliferative activity against human HCT-116 cells assessed as inhibition of cell growth incubated for 72 hrs by MTT assay; format: functional, cell-based; conditions: HCT-116, 72 h
Jurkat = assay: Antiproliferative activity against human Jurkat cells assessed as inhibition of cell growth incubated for 72 hrs by MTT assay; format: functional, cell-based
OVCAR-8 = assay: Antiproliferative activity against human OVCAR-8 cells assessed as inhibition of cell growth incubated for 72 hrs by MTT assay; format: functional, cell-based; conditions: OVCAR-8, 72 h
SF-295 = assay: Antiproliferative activity against human SF-295 cells assessed as inhibition of cell growth incubated for 72 hrs by MTT assay; format: functional, cell-based; conditions: SF-295, 72 h
MCF7 [20] = assay: Antiproliferative activity against human MCF7 cells assessed as inhibition of cell growth incubated for 72 hrs by MTT assay; format: functional, cell-based; conditions: MCF7, 72 h
NCI-H460 = assay: Antiproliferative activity against human NCI-H460 cells assessed as inhibition of cell growth incubated for 72 hrs by MTT assay; format: functional, cell-based; conditions: NCI-H460, 72 h
MV4-11 = assay: Cytotoxicity against human MV4-11 cells; format: functional, cell-based
SK-MEL-5 = assay: Antiproliferative activity against human SK-MEL-5 cells assessed as inhibition of cell growth incubated for 96 hrs by SRB assay; format: functional, cell-based; conditions: SK-MEL-5, 96 h

O=C1C=C(Nc2cccc(F)c2)C(=O)c2ccccc21
IC50 (A549): 6.15 µM

COc1ccc(SC2=CC(=O)c3c(OC)ccc(OC)c3C2=O)cc1
IC50 [1]: 1350 nM | IC50 (MKN-45): 630 nM | IC50 [2]: 420 nM | IC50 (MKN-28): 560 nM | IC50 (NCI-N87): 730 nM | IC50 [3]: 1220 nM | IC50 (AGS [4]): 320 nM | IC50 [5]: 640 nM | IC50 [6]: 710 nM

O=C1c2ccccc2C(=O)c2oc(-c3ccccc3Cl)nc21
IC50 (PC-3): 1260 nM | IC50 (LNCaP): 100 nM

SODIUM ORTHOVANAD
IC50 (DBTRG-05MG): 25 µM

C=CC(C)(C)C(SC(=O)c1cc(OC)c(OC)c(OC)c1)c1cc(OC)c2c(c1OC)/C(=N\O)C=C/C2=N\O (configuration not stated)
IC50 (HCT-116 [7]): 4.95 µM | IC50 (HCT-15 [8]): 3.67 µM

COc1cc(C2C3=C(Nc4cc5c(cc42)OCO5)C(=O)c2ccccc2C3=O)cc(OC)c1OC (configuration not stated)
IC50 (HeLa [9]): 26.8 µM | IC50 (HepG2 [10]): 14.6 µM

COc1ccc(C2C3=C(Nc4nc(SC)nc(N)c42)C(=O)c2ccccc2C3=O)cc1Br (configuration not stated)
IC50 (HepG2 [11]): 5.91 µM | IC50 (SGC-7901): 4.39 µM

CC(C)(C)SC1=C(Cl)C(=O)c2ccccc2C1=O
IC50 (HeLa [12]): 10.2 µM

O=C(NNC1=CC(=O)c2ccccc2C1=O)c1ccncc1
IC50 (MCF7 [13]): 20.9 µM | IC50 (HCT-15 [14]): 28.2 µM

Cn1c(=O)c2c3c(c(-c4cccs4)nc2n(C)c1=O)C(=O)c1ccccc1C3=O
IC50 (AGS [15]): 3.3 µM

COc1cc(NC2=C(C(=O)c3ccccc3)C(=O)c3ccccc3C2=O)cc(OC)c1OC
IC50 (MCF7 [16]): 7.53 µM | IC50 (T-24): 11.6 µM | IC50 (DU-145 [17]): 8.12 µM

O=C(c1cccs1)c1cc2c(s1)C(=O)c1ccccc1C2=O
IC50 (HT-29): 1730 nM

COc1ccc(N(Cc2cn(S(=O)(=O)c3ccc(C)cc3)nn2)C2=CC(=O)c3ccccc3C2=O)cc1
IC50 (MDA-MB-435): 560 nM | IC50 (DU-145 [18]): 380 nM | IC50 (HCT-116 [19]): 460 nM | IC50 (Jurkat): 310 nM | IC50 (OVCAR-8): 850 nM | IC50 (SF-295): 420 nM | IC50 (MCF7 [20]): 580 nM | IC50 (NCI-H460): 380 nM

O=C(Cc1ccc(C(=O)NO)cc1)NC1=CC(=O)c2ccccc2C1=O
EC50 (MV4-11): 367 nM

C=CC/N=c1\sc2c(n1NC(=O)c1cc3ccc1CCc1ccc(cc1)CC3)C(=O)c1ccccc1C2=O
IC50 (SK-MEL-5): 810 nM
